Measurements published in article PMC3714282, “Pharmacometabolomics of Response to Sertraline and to Placebo in Major Depressive Disorder – Possible Role for Methoxyindole Pathway” (PLoS ONE, 2013).

Experiments:
[1] = system: 5-Methoxytryptamine (5-MTPM); test: GCTOF-MS measurement of serum 5-Methoxytryptamine (5-MTPM): change from baseline at week 1 and week 4; assay type: in vivo, human; details: for Change in 5-MTPM levels / Change 5-MTPM: serum; for Change in 5-MTPM levels: four weeks; for Change 5-MTPM: log-transformed concentration
Description: Samples were analyzed using a liquid chromatography electrochemical array (LCECA) platform that has been extensively validated and used in our prior studies in neurodegenerative and psychiatric disorders [30]–[34]. The method includes multiple compounds from the tyrosine, tryptophan, sulfur amino acids and purine pathways, and markers of oxidative stress and protection (for the list of metabolites and abbreviations see Table 1). Levels of 5-Methoxytryptamine (5-MTPM) were measured using a gas chromatography time-of-flight-mass spectrometry (GCTOF-MS) platform. Samples were prepared for analysis as previously described. During the sample preparation, pools were created from equal volumes of subaliquots of all samples. Concentrations of metabolites in the individual samples were expressed as a percentage of the concentration of those metabolites in the averaged pool.
Data preprocessing: We first removed the metabolites that have more than 40% missing values. […] Principal components analysis (PCA; SIMCA-P+12.0) was used to identify outliers. The analysis was performed for each time point. […] Subjects with ≥3 standard deviations away from the center of data cloud within two principal components (PC's) scores scatter plot were considered outliers and were removed from further analysis.
These analyses were conducted separately for the sertraline and placebo groups. Between groups t-tests were used to compare baseline to one week and baseline to four week change scores between the sertraline and placebo groups.
(§1) Signatures of response to sertraline and placebo were identified by using paired t-tests to compare week 4 metabolite levels to baseline metabolite levels in the responders and non-responders to therapy. […] These analyses were also performed to evaluate changes in ratios of individual metabolites within (e.g., 5-HT/5-HTP) and between branches of tryptophan pathway (e.g., KYN/MEL).

[2] = system: outpatients with MDD; test: Randomized double-blind 4-week trial, response by 17-item Hamilton Rating Scale for Depression (HAMD17); assay type: in vivo, human
Excerpt: The 75 patients in this report were a subset of the 165 patients who entered a randomized, double-blind, flexible dosing, placebo-controlled study performed at 12 clinical sites. […] Subjects selected for this study were those with serum samples and HAMD17 scores available at baseline and 1 week and at 4 weeks (+/−1 week) after treatment. Finally, the subset of participants in this study largely overlaps with those used in our previous study.
Study participants were outpatients, 18–65 years of age, from various clinical sites across the United States. […] A complete description of the inclusion and exclusion used in this study can be found in Table S1. The study protocol was developed in accordance with the principles of the Declaration of Helsinki. All patients provided written informed consent. The study was sponsored and monitored by Pfizer, Inc. Each site's institutional review board approved and oversaw the study. The primary outcome measure was the HAMD17, used to assess depressive symptom severity. Measures were gathered at baseline, and weeks 1 and 4 of treatment at the patient's visits. Serum samples were collected using standard protocol at baseline, week 1 and week 4 of treatment at the clinic visits. Whole blood was collected in serum collection tubes and inverted 5–8 times. Serum samples were allowed to clot at room temperature for 60 minutes and then centrifuged at 1,300×g for 15 minutes. Following centrifugation supernatant was frozen at −80°C until analysis.
as §1

## CN[C@H]1CC[C@@H](c2ccc(Cl)c(Cl)c2)c2ccccc21 [Sertraline, sertraline]
[1]; after four week of treatment, non-responders
  Change of 5-MTPM (average change of log-transformed concentration): -0.11
[1]; after four week of treatment, responders
  Change of 5-MTPM (average change of log-transformed concentration): -0.42
[1]; after one week of treatment, non-responders
  Change of 5-MTPM (average change of log-transformed concentration): -0.052
[1]; good responders to sertraline
  Change in 5-MTPM levels: significant decrease
[1]; non-responders to sertraline
  Change in 5-MTPM levels: not significantly changed
[1]; after four weeks, sertraline group
  Change 5-MTPM: −0.29
[1]; after one week, responders to sertraline
  Change 5-MTPM: -0.21
[2]; Female patients
  APC, average percent change in HAMD17 score: Female: APC= -55%
[2]; Non-White patients
  APC, average percent change in HAMD17 score: Non-White: APC= -52%
[2]; after four weeks, 21/35 patients, 50-150 mg/day
  response rate (responders: ≥50% reduction in HAMD17 scores): 60%
